Assays:
HIV-1 Nef dimerization = HIV-1 Nef dimerization (Human immunodeficiency virus type 1 group M subtype B, UniProt P03407); conditions: up to a final DMSO concentration of 2.5%
293T cells = conditions: final DMSO concentration

HIV-1 Nef dimerization, sequence (P03407 2-210): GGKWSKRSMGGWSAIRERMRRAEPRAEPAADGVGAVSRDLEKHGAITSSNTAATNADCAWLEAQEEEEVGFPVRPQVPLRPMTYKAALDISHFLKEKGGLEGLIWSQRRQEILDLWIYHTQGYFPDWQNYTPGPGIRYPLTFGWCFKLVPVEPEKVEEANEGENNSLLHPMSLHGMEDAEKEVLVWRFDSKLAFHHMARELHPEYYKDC

Question: With `C[S+](C)[O-]` [DMSO] as the compound, how does the “BiFC/mRFP ratio of WT2A” value (HIV-1 Nef dimerization) read?
Answer: essentially unchanged

Question: And the “IC50 of cell loss (cell density)” value (293T cells)?
Answer: approximately 1%

Question: And the “concentration causing cell loss” value (293T cells)?
Answer: above 0.6%

Source: paper PMC4006692 (Journal of biomolecular screening, 2013)
